The test system of one experiment is CHO-K1/GLUT4 cells. Briefly: Quantification of GLUT4 translocation ratio (IN Cell Analyzer 1000). The format is cell-based. As to conditions: for EC50: serum-starved cells, read-out: EC50, membrane GLUT4 (GLUT4 translocation). On the procedure:
CHO-K1 cells are transfected with pEGFPN1-GLUT4-myc plasmid using Lipofectamine 2000, and subsequently screened with G418 (800 µg/ml). The CHO-K1/GLUT4 stable cell line is obtained by picking up clones.
CHO-K1/GLUT4 cells are seeded into 96-well plate. After cells reached 100% confluence, F12 medium is changed to 3T3-L1 medium and incubated for 2 days. 8-hour serum starvation later, cells are stimulated with insulin for 5 minutes, fixed with 3.7% formaldehyde for 15 minutes, and labeled with anti-myc monoclonal antibody and secondary antibody (Alexa Fluor 647 conjuncted anti-mouse antibody). Fluorescence pictures were obtained by IN Cell Analyzer 1000 Instrument (GE Healthcare) with the same exposure time. The basic unit comprises several core components including a Nikon microscope and a high-resolution CCD camera. Membrane-located GLUT4 is represented by the intensity of red fluorescence (Alex fluor 647) and normalized by the intensity of green fluorescence (GLUT4-EGFP), which is assigned to the total GLUT4 [46].

In another experiment the target is T1, TC-PTP (Homo sapiens, UniProt P17706).
T1 construct: pGEX4T-1-TC-PTP1–288; GST (N); made in house; host or cells: E. coli BL21 (DE3)
In words: PTP enzyme inhibition assay (pNPP substrate). The format is biochemical. The conditions noted are these: PTPs 0.3 µM, pNPP 5 mM, 25°C; NI: No inhibition at 100 µM. On the procedure: (§1) The enzymatic activities of the recombinant PTPs are measured at 25°C using pNPP as substrate. The initial velocities of enzymatic reactions are determined by continuously measuring the absorbance at 405 nm every 15 s using a microplate spectrophotometer (Bio-Rad). […] To determine the inhibition type, each concentration of Rut (0, 50 and 75 µM) is incubated with PTP1B (0.3 µM) in reaction buffer (50 mM HEPES, pH7.0, 1 mM EDTA, and 100 mM NaCl) for 10 min and the reactions are initiated by different concentrations of pNPP (0.5–10 mM). The inhibition type is determined using double-reciprocal plots. In determination of the selectivity of Rut against PTPs, the result is referred as no inhibition when 100 µM Rut inhibits no enzyme activity. The same reaction systems are designed for all PTPs including PTP1B.

Another experiment concerns the target T2, CD45 (Homo sapiens, UniProt P08575).
T2 construct: pGEX2T-CD45_560–1256; GST (N); made in house; host or cells: E. coli BL21 (DE3)
Briefly: PTP enzyme inhibition assay (pNPP substrate). It is filed as biochemical. As to conditions: PTPs 0.3 µM, pNPP 5 mM, 25°C; NI: No inhibition at 100 µM. On the procedure:
as §1

A further experiment has as its target T3, LAR (Homo sapiens, UniProt P10586).
T3 construct: pGEX2T-LAR1282–1888; GST (N); made in house; host or cells: E. coli BL21 (DE3)
Briefly: PTP enzyme inhibition assay (pNPP substrate). The format is biochemical. The conditions noted are these: PTPs 0.3 µM, pNPP 5 mM, 25°C; NI: No inhibition at 100 µM; read-out: IC50 LAR. On the procedure:
as §1

In another experiment the target is T4, PTP1B (Homo sapiens, UniProt P18031).
T4 construct: pGEX4T-1-PTP1B1–321; GST (N); made in house; host or cells: E. coli BL21 (DE3)
T4 sequence (P18031 1-321): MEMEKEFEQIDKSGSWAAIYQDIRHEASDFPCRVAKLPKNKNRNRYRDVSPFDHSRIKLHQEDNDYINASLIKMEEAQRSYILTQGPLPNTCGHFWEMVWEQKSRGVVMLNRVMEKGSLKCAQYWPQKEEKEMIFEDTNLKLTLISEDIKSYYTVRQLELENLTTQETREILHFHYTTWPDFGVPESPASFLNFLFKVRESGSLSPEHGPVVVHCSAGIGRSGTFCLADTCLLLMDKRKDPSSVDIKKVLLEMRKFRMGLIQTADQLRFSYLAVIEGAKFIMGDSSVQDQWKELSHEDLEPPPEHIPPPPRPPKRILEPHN
In words: PTP enzyme inhibition assay (pNPP substrate). The format is biochemical. As to conditions: PTPs 0.3 µM, pNPP 5 mM, 25°C; NI: No inhibition at 100 µM. On the procedure:
as §1

The target of the next experiment is T5, PTPα (Homo sapiens, UniProt P18433).
T5 construct: pGEX2T-PTPα182–803; GST (N); made in house; host or cells: E. coli BL21 (DE3)
In words: PTP enzyme inhibition assay (pNPP substrate). It is filed as biochemical. As to conditions: PTPs 0.3 µM, pNPP 5 mM, 25°C; NI: No inhibition at 100 µM; read-out: IC50 PTPα. As for the experimental part:
as §1

The subject of a further experiment is 3T3-L1 adipocytes. Briefly: 2-Deoxyglucose uptake in 3T3-L1 adipocytes. The format is cell-based. As to conditions: insulin 17 nM; Rut 5–25 µM, C2 10 µM. On the procedure:
3T3-L1 adipocytes are fully differentiated (the 10th day after MDI stimulation) and seeded into 24-well plate. After incubation with compounds in serum-free medium containing 0.5% BSA for 8 hours, medium is changed to Krebs buffer containing […] insulin and incubated for 30 minutes. In the last 5 minutes, cells are incubated with 2-[^3H]-deoxy-D-glucose. The glucose uptake is stopped by ice-cold PBS, and the cells are then lysed with 0.1% Triton. Finally the radioactivity is calculated by a scintillation counter. Cytochalasin B is used to measure nonspecific uptake, and the value is subtracted from all the data. Radioactivity is normalized by total protein concentration that is measured by BCA kit.

Experiment [1] has as its target T6, Retinoid X receptor α ligand-binding domain (RXRα-LBD), His-tagged, purified (human, UniProt P19793 229-458).
T6 construct: also called hRXRα-LBD; source: E. coli BL21 (DE3), purified (His-tag purification, Novagen instructions)
T6 sequence: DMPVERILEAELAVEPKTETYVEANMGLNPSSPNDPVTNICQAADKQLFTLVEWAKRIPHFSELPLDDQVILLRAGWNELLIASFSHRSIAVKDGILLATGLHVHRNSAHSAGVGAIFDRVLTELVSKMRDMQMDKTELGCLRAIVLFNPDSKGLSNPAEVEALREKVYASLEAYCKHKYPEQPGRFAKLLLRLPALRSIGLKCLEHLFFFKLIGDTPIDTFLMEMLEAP
In words: SPR; Biacore 3000; purified SRC1(613-773) immobilised on a CM5 chip by amine coupling; different concentrations of PPARγ-LBD or RXRα-LBD injected at 20 µL/min for 60 s, dissociation 120 s; running buffer 10 mM HEPES, 150 mM NaCl, 3 mM EDTA, 0.005% P20, pH 7.4; also 1 µM LBD pre-incubated for 1 h with Rut (16.8-100 µM). As to conditions: both partners purified. (SPR reads the build-up and loss of mass on a sensor chip optically.)

Experiment [2] deals with T7, Peroxisome proliferator-activated receptor γ ligand-binding domain PPARγ-LBD(202-477), His-tagged, purified (human, UniProt P37231-2 202-477).
T7 construct: also called hPPARγ-LBD; source: E. coli BL21 (DE3), purified (His-tag purification, Novagen instructions)
T7 sequence (looked up): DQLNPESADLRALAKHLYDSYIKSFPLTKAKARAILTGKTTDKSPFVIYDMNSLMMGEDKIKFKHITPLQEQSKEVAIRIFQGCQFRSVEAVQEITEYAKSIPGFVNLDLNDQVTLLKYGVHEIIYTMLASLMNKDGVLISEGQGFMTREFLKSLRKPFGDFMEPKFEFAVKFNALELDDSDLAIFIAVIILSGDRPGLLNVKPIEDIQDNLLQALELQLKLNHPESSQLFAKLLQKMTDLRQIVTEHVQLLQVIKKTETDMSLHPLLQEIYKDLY
The experiment is described as above. As to conditions: both partners purified.

Where two headings read alike, the source gives them in different places.

T2 sequence (P08575 610-1306 limits assumed): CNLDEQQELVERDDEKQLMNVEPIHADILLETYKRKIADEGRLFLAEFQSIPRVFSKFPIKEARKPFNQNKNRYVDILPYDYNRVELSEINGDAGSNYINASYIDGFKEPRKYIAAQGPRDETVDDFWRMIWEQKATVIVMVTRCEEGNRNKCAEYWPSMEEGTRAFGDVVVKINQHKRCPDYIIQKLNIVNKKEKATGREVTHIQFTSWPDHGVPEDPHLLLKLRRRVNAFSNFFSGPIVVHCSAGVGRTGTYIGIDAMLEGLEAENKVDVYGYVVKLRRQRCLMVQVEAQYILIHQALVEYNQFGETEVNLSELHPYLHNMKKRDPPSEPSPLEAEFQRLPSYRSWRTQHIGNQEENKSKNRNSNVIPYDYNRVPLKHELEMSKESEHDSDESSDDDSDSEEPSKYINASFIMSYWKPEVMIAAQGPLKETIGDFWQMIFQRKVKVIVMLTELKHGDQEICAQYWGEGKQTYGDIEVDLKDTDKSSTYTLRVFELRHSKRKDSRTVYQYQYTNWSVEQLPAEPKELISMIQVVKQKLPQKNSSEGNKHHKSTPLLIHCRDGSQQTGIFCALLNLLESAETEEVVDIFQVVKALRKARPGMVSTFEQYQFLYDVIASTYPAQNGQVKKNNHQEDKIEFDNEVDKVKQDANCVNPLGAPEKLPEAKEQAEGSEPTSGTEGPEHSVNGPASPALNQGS
T3 sequence (P10586 1301-1907 limits assumed): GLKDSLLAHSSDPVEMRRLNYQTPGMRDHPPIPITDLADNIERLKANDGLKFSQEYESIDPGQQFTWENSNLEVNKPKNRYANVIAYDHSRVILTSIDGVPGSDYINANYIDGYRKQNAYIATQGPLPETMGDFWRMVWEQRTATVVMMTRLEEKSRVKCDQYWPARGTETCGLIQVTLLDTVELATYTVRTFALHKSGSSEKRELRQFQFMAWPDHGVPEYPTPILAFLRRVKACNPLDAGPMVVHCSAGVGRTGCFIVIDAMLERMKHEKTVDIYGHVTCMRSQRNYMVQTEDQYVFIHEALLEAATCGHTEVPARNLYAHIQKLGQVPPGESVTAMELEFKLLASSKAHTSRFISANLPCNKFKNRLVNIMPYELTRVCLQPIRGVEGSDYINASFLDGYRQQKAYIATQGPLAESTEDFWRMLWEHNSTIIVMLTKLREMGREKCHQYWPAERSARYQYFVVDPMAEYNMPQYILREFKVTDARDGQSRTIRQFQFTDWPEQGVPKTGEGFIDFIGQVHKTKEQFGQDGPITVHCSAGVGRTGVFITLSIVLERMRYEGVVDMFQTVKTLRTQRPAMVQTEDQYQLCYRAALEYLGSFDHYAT
T1 sequence (P17706 1-288): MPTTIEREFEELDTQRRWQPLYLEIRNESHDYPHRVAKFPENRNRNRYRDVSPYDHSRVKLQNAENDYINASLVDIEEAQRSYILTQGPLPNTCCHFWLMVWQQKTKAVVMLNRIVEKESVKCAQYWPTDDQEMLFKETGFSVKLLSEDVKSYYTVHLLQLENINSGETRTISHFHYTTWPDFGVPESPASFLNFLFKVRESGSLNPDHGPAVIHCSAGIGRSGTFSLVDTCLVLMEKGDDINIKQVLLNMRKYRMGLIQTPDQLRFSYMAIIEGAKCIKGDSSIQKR

What is called EC50 is the midpoint of the concentration-response curve. On to “insulin: insulin used as stimulus in cellular GLUT4 translocation assay”, for which the “insulin-stimulated GLUT4 translocation over the basal” value in the experiment on CHO-K1/GLUT4 cells (IN Cell 1000 analyzer based system) is reported as “around 1.5 fold”. Also, the EC50 in the experiment on CHO-K1/GLUT4 cells (insulin 5 min) worked out at 100 nM.

The IC50 is the concentration that gives 50% inhibition. With pervanadate [reference compound], the IC50 came to 36 nM on TC-PTP; 6 nM against CD45; 26 nM at LAR; 15 nM on PTP1B; 59 nM on PTPα. Also, in the experiment on 3T3-L1 adipocytes, the insulin-induced glucose uptake entry was “increase the insulin-stimulated glucose uptake”. The EC50 with CHO-K1/GLUT4 cells (pervanadate 30 min) stood at 51000 nM.

`COC[C@H]1OC(=O)c2coc3c2[C@@]1(C)C1=C(C3=O)[C@@H]2CCC(=O)[C@@]2(C)C[C@H]1OC(C)=O` [wortmannin, reference compound]: the “effect on Rut or insulin-stimulated GLUT4 translocation” value in the experiment on CHO-K1/GLUT4 cells (wortmannin 1 µM, Rut 20 µM or insulin 170 nM) was “completely inhibits”.

B1: Steroid receptor coinducer-1 fragment SRC1(613-773), His-tagged, purified (domain or fragment, human, UniProt Q15788 613-773, looked up)
chain: LHNNDRLSDGDSKYSQTSHKLVQLLTTTAEQQLRHADIDTSCKDVLSCTGTSNSASANSSGGSCPSSHSSLTERHKILHRLLQEGSPSDITTLSVEPDKKDSASTSVSVTGQVQGNSSIKLELDASKKKESKDHQLLRYLLDKDEKDLRSTPNLSLDDVKV
notes: plasmid pET15b-SRC1(613-773); Human cDNA is stated as template for the two-hybrid SRC1(613-773) clone; source: E. coli BL21 (DE3), purified (His-tag purification, Novagen instructions)
One may read the Kd as the free concentration of one partner at which half of the binding sites on the other are occupied at equilibrium, for simple one-to-one binding. A low value points to tighter binding. On to B1, for which binding in experiment [1] was characterised by a dissociation constant (Kd) of 1160 nM. Moreover, the binding result in [2] is listed as “binds”.

These data come from publication PMC3288053 (PLoS ONE, 2012).
